In US10765763B2, “Radioligands for myelin” (CASE WESTERN RESERVE UNIVERSITY, priority 2016, dated 2020):
Entries after “also recorded” stand apart in the source; their conditions may differ.

How the values were obtained:
myelin [1] = test: In situ histological staining of SCI (T13) spinal cord after microPET/CT; type: in vivo, rat; conditions: SCI rats, 60 min after tail vein injection
Method: After microPET imaging studies, the rats were administered compound 21 (3-5 mg) via tail vein injection, and 60 min later the rats were perfused transcardially with saline followed by 4% PFA in PBS. Spinal cords were then removed, postfixed by immersion in 4% PFA overnight, dehydrated in 30% sucrose solution, cryostat sectioned at 100 μm, mounted consecutively on superfrost slides, and images were sequentially acquired directly using a Leica fluorescent microscope to give a series of 2D microscopic images along the length of the spinal cord. Slices were aligned sequentially using a semiautomated image registration algorithm. Starting from the first slice image, the current slice was used as the reference image for alignment and the next slice was the floating image. The floating image was aligned via control point pairs between corresponding anatomic features in the two images. A 2D rigid-body transformation (translation, rotation) was used to transform the floating image to align with the reference and a minimum of three control point pairs were used for the transformation. […] All slices in the sequence were aligned by this technique, giving a 3D reconstructed fluorescence image volume. Image volumes from fluorescence, PET, and CT were visualized in Amira using volume rendering and aligned based on the shape of the spine and fiducials from the vertebrae. […]

myelin [2] = test: In situ staining of compound 21 in wild-type mice; type: in vivo, mouse; conditions: WT mice, 1.0 mg (50 mg/kg) tail vein, 1 h
Method: Wild-type mice were administered the newly synthesized compounds (40 mg/kg) via tail vein injection, and 30-60 min later the mice were perfused transcardially with saline followed by 4% PFA in PBS. Brains and spinal cords were then removed, postfixed by immersion in 4% PFA overnight, dehydrated in 30% sucrose solution, cryostat sectioned at 100 μm, mounted on superfrost slides, and images were acquired directly using a Leica fluorescent microscope.
Following the in vitro studies, we then investigated the ability of compound 21 to readily enter the brain and bind to myelin in situ. A dose of 1.0 mg of compound 21 (50 mg/kg) was administered via the tail vein to wild-type (WT) mice. One hour after injection, the mice were perfused with saline followed by 4% paraformaldehyde (PFA) and the brain and spinal cord were removed and sectioned. The distribution of compound 21 was then directly examined under a fluorescent microscope.

myelin [3] = test: In vitro detection of focal demyelination in LPC rat model; type: binding; conditions: in vitro tissue staining
Method: Sprague-Dawley female rats (220-250 g, 8 weeks old) were anesthetized and positioned in a stereotaxic frame (Stoelting). A small incision was made in the scalp, and the corpus callosum was targeted using the following stereotaxic coordinates, relative to bregma: anterior-posterior, 0.0 mm; medial-lateral, 2.0 mm; and dorsal-ventral, 3.4 mm A small hole was drilled in the skull, and a 26S-gauge needle attached to a 10 μL Hamilton Syringe was lowered into the corpus callosum according to the dorsal-ventral coordinate. A microinjector pump (Stoelting) controlled the infusion of 6 μL of lysolecithin (LPC, 0.1% in saline) at a rate of 0.25 μL/min, after which the needle was left in place for 2 min in order to prevent liquid reflux out of the brain parenchyma. The incision was then closed using 5-0 Ethicon sutures, and the animals were allowed to recover on a heating pad. After 5-7 days, the animals were ready for study.
Five days after surgery, the rats were anesthetized and perfused with saline followed by 4% PFA. […] Sections were then examined under a microscope (Leica DM4000B, Leica Microsystem Inc., Buffalo Grove, Ill., USA) equipped for fluorescence (DFC7000T), and images of the stained mouse whole brain sections were acquired with the same exposure time. […]

myelin [4] = test: Quantitative microPET/CT imaging in Shiverer and WT mice; type: in vivo, mouse; conditions: microPET
Method: (§1) For better anatomic localization, CT co-registration was applied.
To further evaluate the in vivo binding specificity of [^18F]21, we investigated the pharmacokinetic profiles of [^18F]21 in a Shiverer mouse model that is deficient in myelin in the brain. Thus, the pharmacokinetic profiles of [^18F]21 were quantitatively compared between Shiverer mice (C3Fe.SWV-Mbpshi/J, n=2) and age-matched WT mice (CB57J, n=2).
Dynamic emission scans were acquired for 60 min in 3D list mode immediately after [^18F]21 (0.3 mCi each mouse, 11.1 MBq) was administered. The brain uptake of [^18F]21 was lower in the Shiverer brain than in the WT littermates (1.25 vs 1.64). After the brain concentration of [^18F]21 reached a plateau, the SUVs from 40 to 60 min were summarized and compared.

myelin [5] = test: In situ autoradiography of [18F]21 in mouse brain; type: in vivo; conditions: coronal, after tail vein injection
Method: Wild-type mice were euthanized at 30 min post iv injection of [^18F]21 (111 MBq, 3.0 mCi). The brains were rapidly removed, placed in OCT embedding medium, and frozen at −20° C. After reaching equilibrium at this temperature, the brains were coronally sectioned at 60 μm on a cryostat and mounted on superfrost slides. After drying by air at room temperature, the slides were put in a cassette and exposed for 20 min to film to obtain images.
To validate the PET results and confirm that the PET signals were indeed from specific binding to myelin, we conducted ex vivo autoradiography in the mouse brain following administration of [^18F]21 through tail vein injections. After 1 h, the mouse brain was dissected for coronal tissue sectioning. […] Thus, combination of in situ autoradiography and PET imaging confirmed that [^18F]21 binds specifically to myelin in vivo.

myelin [6] = test: Quantitative microPET/CT imaging of spinal cord in rat SCI model; type: in vivo; conditions: for uptake in T13: normalized to average spine uptake
Method: Sprague-Dawley female rats (220-250 g, 8 weeks old) were anesthetized and a restricted laminectomy was conducted to expose the dorsal surface of T13. The vertebral column between T12 and L1 was then stabilized with clamps and forceps fixed to the base of an Infinite Horizon impact device. The midpoint of T13 was impacted with a force of 250 kDyn using a 2.5 mm stainless steel impactor tip, which was used to induce a moderately severe contusive injury to the spinal cord. The musculature was then sutured over the laminectomy site and the skin closed with wound clips followed by subsequent treatment with Marcaine at the incision site. The force/displacement graph was used to monitor impact consistency. After surgery, the animals were carefully monitored daily for pain and body weight with manual bladder expression 2-3 times daily to stimulate reflex voiding until the animals could urinate independently.
as §1
So far, imaging of the spinal cord remains a great challenge. […] Next, we asked whether [18F]21 PET is capable of in vivo imaging of myelin deficiency or myelin damage in living animal models. We conducted [^18F]21-PET imaging in a rat model of thoracic contusive SCI. In this model, the contusion was made at T13 to introduce demyelination. In vivo [^18F]21 PET imaging was performed before (as a baseline scan) and 1 day after contusion. The uptake of [^18F]21 in every spine segment was then normalized to the average spine uptake. […] After microPET/CT imaging, we conducted in situ histological staining of the spinal cord 60 min after injection of nonlabeled compound 21 through the tail vein.

[7] = Quantitative microPET/CT imaging in WT rats, Example 2; type: in vivo, rat
Method: as §1
Following radiosynthesis, the pharmacokinetic profile of [^18F]21 was fully characterized by quantitative microPET/CT imaging in WT rats (n=3). […] The brain radioactivity peaked at 3 min postinjection followed by rapid clearance before reaching a plateau at 40-60 min postinjection.

| brain uptake ([7]; WT rats (n=3), microPET/CT) | time constant of clearance ([7]; WT rats, calculated from fitted time-radioactivity curve) [min] | time of peak brain radioactivity ([7]; WT rats, postinjection) [min] | time of plateau of brain radioactivity ([7]; WT rats, postinjection) [min] | SMILES | in situ histological staining of SCI (T13) tissue section (myelin [1]) | brain/spinal cord entry and in situ myelin staining (myelin [2]) | detection of demyelinated lesion by fluorescent staining (myelin [3]) | brain uptake (myelin [4]; Shiverer mouse brain) | brain uptake (myelin [4]; WT littermates) | autoradiographic labeling (myelin [5]) | uptake in L1 (myelin [6]; 1 day post-T13 contusion) | uptake in T12 (myelin [6]; 1 day post-T13 contusion) | uptake in T13 (myelin [6]; SCI group, 1 day post-T13 contusion) | uptake in T13 (myelin [6]; baseline scan before contusion) | uptake in L1 (myelin [6]; before contusion) | uptake in T12 (myelin [6]; before contusion) |
| --- | --- | --- | --- | --- | --- | --- | --- | --- | --- | --- | --- | --- | --- | --- | --- | --- |
| – | – | – | – | CNc1ccc(/C=C/c2ccc(NCc3cn(CCF)nn3)cc2)cc1 [Compound 21, (E)-N-((1-(2-Fluoroethyl)-1H-1,2,3-triazol-4-yl)methyl)-4-(4-(methylamino)styryl)aniline] | showed that a demyelinated lesion was present at the dorsal column | readily entered the brain and spinal cord and localized in all the myelinated regions in proportion to the myelin content; also recorded: crosses the BBB and stains myelinated areas of the mouse brain | capable of detecting the demyelinated focal lesion by fluorescent staining; also recorded: can be used to detect demyelinated lesion | – | – | – | – | – | – | – | – | – |
| high uptake in the brain | 19.45 | 3 | 40 to 60 | CNc1ccc(/C=C/c2ccc(NCc3cn(CC[18F])nn3)cc2)cc1 [[^18F]21] | – | – | – | 1.25 | 1.64 | distinctly labeled the corpus callosum | 1.08 | 0.99 | 0.81 | 1.02 | 1.05 | 0.99 |
